Measurements from patent publication US20020137929A1, “1 - (3-heterocyclylphenyl) isothiourea, -isourea, -guanidine and -amidine herbicidal agents” (Intellectual Property Department, BASF Aktiengesellschaft, priority 1998, published 2002).

Tests used:
[1] = tested on: ORYSAT (Rice, Tebonnet); assay: Postemergence herbicidal evaluation; assay type: in vivo, Oryza sativa, (L.) Tebonnet; conditions: postemergence
In short: (§1)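 First, seedlings were raised for around two weeks. Next, test material in 50/50 acetone/water containing 0.5% TWEEN 20 was sprayed through a nozzle at 40 psi, equivalent to about 0.0156–0.500 kg/ha. Finally, after 4–5 weeks in the greenhouse, plants were rated 0–9.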

[2] = tested on: GLXMAW (Soybean, Williams); assay: Preemergence herbicidal evaluation; assay type: in vivo, Glycine max, (L.) Merr. cv Williams; conditions: rated 4-5 weeks after treatment, rating scale 0-9
In short: (§2)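 Scores (0–9) reflect visual comparison with control plants for stand, vigor, malformation, size and chlorosis. Compound was applied to the soil after sowing, before emergence, as an aqueous acetone spray (about 0.0156–0.500 kg/ha), and cups were kept in a greenhouse for 4–5 weeks.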

[3] = tested on: CASOB (Sicklepod); assay: Postemergence herbicidal evaluation; assay type: in vivo, Cassia obtusifolia; conditions: postemergence
In short: as §1

[4] = tested on: SETVI (Foxtail, Green); assay: Preemergence herbicidal evaluation; assay type: in vivo, Setaria viridis; conditions: rated 4-5 weeks after treatment, rating scale 0-9
In short: as §2

[5] = tested on: ORYSAT (Rice, Tebonnet); assay: Preemergence herbicidal evaluation; assay type: in vivo, Oryza sativa, (L.) Tebonnet; conditions: rated 4-5 weeks after treatment, rating scale 0-9
In short: as §2

[6] = tested on: CYPSE (Flatsedge); assay: Preemergence weed control under flooded paddy conditions; assay type: in vivo, Cyperus serotinus; conditions: rated 3-4 weeks after treatment
In short: (§3)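 Ratings on a 0-9 visual scale cover stand, vigor, malformation, size, chlorosis and overall appearance relative to a control, taken three to four weeks post-treatment. Application was into flood water over freshly sown silt loam at roughly 0.0313 to 0.500 kg/ha.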

[7] = tested on: CHEAL (Lambsquarters, Common); assay: Postemergence herbicidal evaluation; assay type: in vivo, Chenopodium album; conditions: postemergence
In short: as §1

[8] = tested on: MOOVA (Monochoria); assay: Preemergence weed control under flooded paddy conditions; assay type: in vivo, Monochoria vaginalis; conditions: rated 3-4 weeks after treatment
In short: as §3

[9] = tested on: GALAP (Galium); assay: Postemergence herbicidal evaluation; assay type: in vivo, Galium aparine; conditions: postemergence
In short: as §1

[10] = tested on: AMBEL (Ragweed, Common); assay: Preemergence herbicidal evaluation; assay type: in vivo, Ambrosia artemisifolia; conditions: rated 4-5 weeks after treatment, rating scale 0-9
In short: as §2

[11] = tested on: ZEAMX (Corn, Field); assay: Postemergence herbicidal evaluation; assay type: in vivo, Zea mays; conditions: postemergence
In short: as §1

## Cn1c(C(F)(F)F)cc(=O)n(-c2cc(N=C3SCC(=O)N3Cc3cccc(C(F)(F)F)c3)c(Cl)cc2F)c1=O [Compound 142, 3-{4-Chloro-2-fluoro-5-{{3-[m-(trifluoromethyl)benzyl]-4-oxo-2-thiazolidinylidene}-amino}phenyl}-1-methyl-6-(trifluoromethyl)-2,4(1H,3H)-pyrimidinedione]
[1]; rate 0.0156 kg/ha
  herbicidal rating ORYSAT: 2.0
[1]; rate 0.0313 kg/ha
  herbicidal rating ORYSAT: 1.5
[1]; rate 0.0625 kg/ha
  herbicidal rating ORYSAT: 2.0
[2]; rate 0.0156 kg/ha
  Preemergence herbicidal rating GLXMAW: 1.0
[2]; rate 0.0313 kg/ha
  Preemergence herbicidal rating GLXMAW: 0.0
[2]; rate 0.0625 kg/ha
  Preemergence herbicidal rating GLXMAW: 0.0
[2]; rate 0.1250 kg/ha
  Preemergence herbicidal rating GLXMAW: 0.0
[2]; rate 0.2500 kg/ha
  Preemergence herbicidal rating GLXMAW: 1.0
[3]; rate 0.0156 kg/ha
  herbicidal rating CASOB: 0.0
[3]; rate 0.0313 kg/ha
  herbicidal rating CASOB: 1.0
[3]; rate 0.0625 kg/ha
  herbicidal rating CASOB: 3.0
[4]; rate 0.0156 kg/ha
  Preemergence herbicidal rating SETVI: 0.0
[4]; rate 0.0313 kg/ha
  Preemergence herbicidal rating SETVI: 1.0
[4]; rate 0.0625 kg/ha
  Preemergence herbicidal rating SETVI: 0.0
[4]; rate 0.1250 kg/ha
  Preemergence herbicidal rating SETVI: 2.0
[4]; rate 0.2500 kg/ha
  Preemergence herbicidal rating SETVI: 7.0
[5]; rate 0.0156 kg/ha
  Preemergence herbicidal rating ORYSAT: 0.0
[5]; rate 0.0313 kg/ha
  Preemergence herbicidal rating ORYSAT: 0.0
[5]; rate 0.0625 kg/ha
  Preemergence herbicidal rating ORYSAT: 0.0
[5]; rate 0.1250 kg/ha
  Preemergence herbicidal rating ORYSAT: 1.0
[5]; rate 0.2500 kg/ha
  Preemergence herbicidal rating ORYSAT: 0.0
[6]; 0.1250 kg/ha
  herbicidal effect rating, CYPSE: 0.0
[6]; 0.2500 kg/ha
  herbicidal effect rating, CYPSE: 0.0
[7]; rate 0.0156 kg/ha
  herbicidal rating CHEAL: 4.0
[7]; rate 0.0313 kg/ha
  herbicidal rating CHEAL: 9.0
[7]; rate 0.0625 kg/ha
  herbicidal rating CHEAL: 9.0
[8]; 0.0313 kg/ha
  herbicidal effect rating, MOOVA: 6.0
[8]; 0.0625 kg/ha
  herbicidal effect rating, MOOVA: 7.0
[8]; 0.1250 kg/ha
  herbicidal effect rating, MOOVA: 9.0
[8]; 0.2500 kg/ha
  herbicidal effect rating, MOOVA: 8.0
[9]; rate 0.0156 kg/ha
  herbicidal rating GALAP: 0.0
[9]; rate 0.0313 kg/ha
  herbicidal rating GALAP: 1.0
[9]; rate 0.0625 kg/ha
  herbicidal rating GALAP: 1.0
[10]; rate 0.0156 kg/ha
  Preemergence herbicidal rating AMBEL: 0.0
[10]; rate 0.0313 kg/ha
  Preemergence herbicidal rating AMBEL: 0.0
[10]; rate 0.0625 kg/ha
  Preemergence herbicidal rating AMBEL: 4.0
[10]; rate 0.1250 kg/ha
  Preemergence herbicidal rating AMBEL: 2.0
[10]; rate 0.2500 kg/ha
  Preemergence herbicidal rating AMBEL: 1.0
[11]; rate 0.0156 kg/ha
  herbicidal rating ZEAMX: 4.0
[11]; rate 0.0313 kg/ha
  herbicidal rating ZEAMX: 4.0
[11]; rate 0.0625 kg/ha
  herbicidal rating ZEAMX: 4.5

## Cn1c(C(F)(F)F)cc(=O)n(-c2cc(N=C3SCC(=O)N3Cc3ccccc3Cl)c(Cl)cc2F)c1=O [Compound 143]
[1]; rate 0.0156 kg/ha
  herbicidal rating ORYSAT: 1.5
[1]; rate 0.0313 kg/ha
  herbicidal rating ORYSAT: 1.5
[1]; rate 0.0625 kg/ha
  herbicidal rating ORYSAT: 2.0
[2]; rate 0.0313 kg/ha
  Preemergence herbicidal rating GLXMAW: 0.0
[2]; rate 0.0625 kg/ha
  Preemergence herbicidal rating GLXMAW: 0.0
[2]; rate 0.1250 kg/ha
  Preemergence herbicidal rating GLXMAW: 0.0
[2]; rate 0.2500 kg/ha
  Preemergence herbicidal rating GLXMAW: 1.0
[3]; rate 0.0156 kg/ha
  herbicidal rating CASOB: 0.0
[3]; rate 0.0313 kg/ha
  herbicidal rating CASOB: 1.0
[3]; rate 0.0625 kg/ha
  herbicidal rating CASOB: 3.0
[4]; rate 0.0313 kg/ha
  Preemergence herbicidal rating SETVI: 0.0
[4]; rate 0.0625 kg/ha
  Preemergence herbicidal rating SETVI: 0.0
[4]; rate 0.1250 kg/ha
  Preemergence herbicidal rating SETVI: 3.0
[4]; rate 0.2500 kg/ha
  Preemergence herbicidal rating SETVI: 3.0
[5]; rate 0.0313 kg/ha
  Preemergence herbicidal rating ORYSAT: 0.0
[5]; rate 0.0625 kg/ha
  Preemergence herbicidal rating ORYSAT: 0.0
[5]; rate 0.1250 kg/ha
  Preemergence herbicidal rating ORYSAT: 0.0
[5]; rate 0.2500 kg/ha
  Preemergence herbicidal rating ORYSAT: 1.0
[6]; 0.0313 kg/ha
  herbicidal effect rating, CYPSE: 0.0
[6]; 0.0625 kg/ha
  herbicidal effect rating, CYPSE: 0.0
[6]; 0.1250 kg/ha
  herbicidal effect rating, CYPSE: 0.0
[6]; 0.2500 kg/ha
  herbicidal effect rating, CYPSE: 0.0
[7]; rate 0.0156 kg/ha
  herbicidal rating CHEAL: 2.0
[7]; rate 0.0313 kg/ha
  herbicidal rating CHEAL: 6.0
[7]; rate 0.0625 kg/ha
  herbicidal rating CHEAL: 6.0
[8]; 0.0313 kg/ha
  herbicidal effect rating, MOOVA: 5.0
[8]; 0.0625 kg/ha
  herbicidal effect rating, MOOVA: 6.0
[8]; 0.1250 kg/ha
  herbicidal effect rating, MOOVA: 6.0
[8]; 0.2500 kg/ha
  herbicidal effect rating, MOOVA: 6.0
[9]; rate 0.0156 kg/ha
  herbicidal rating GALAP: 0.0
[9]; rate 0.0313 kg/ha
  herbicidal rating GALAP: 1.0
[9]; rate 0.0625 kg/ha
  herbicidal rating GALAP: 3.0
[10]; rate 0.0313 kg/ha
  Preemergence herbicidal rating AMBEL: 0.0
[10]; rate 0.0625 kg/ha
  Preemergence herbicidal rating AMBEL: 0.0
[10]; rate 0.1250 kg/ha
  Preemergence herbicidal rating AMBEL: 2.0
[10]; rate 0.2500 kg/ha
  Preemergence herbicidal rating AMBEL: 3.0
[11]; rate 0.0156 kg/ha
  herbicidal rating ZEAMX: 4.0
[11]; rate 0.0313 kg/ha
  herbicidal rating ZEAMX: 4.0
[11]; rate 0.0625 kg/ha
  herbicidal rating ZEAMX: 4.0
